According to publication PMC11094793, “Discovery of LLC0424 as a Potent and Selective in Vivo NSD2 PROTAC Degrader” (Journal of Medicinal Chemistry, 2024):
Read-outs that look alike come from different tables or passages of the source.

What was measured:
[1] = system: CRBN neo-substrates IKZF1, IKZF3, GSPT1, and CK-1α; test: Selectivity immunoblotting in SEM cells: CRBN neo-substrates; format: cell-based, human; settings: 2 μM, 8 h
Method: We conducted a global proteomic assay using tandem mass tags (TMT) labeled mass-spectrometry to unbiasedly quantify the protein change upon LLC0424 treatment in VCaP and RPMI-8402 cells. […] We further used SEM cell line to cross-validate the selectivity of LLC0424 for NSD2 over NSD1 and NSD3 as well as CRBN neo-substrates IKZF1, IKZF3, GSPT1, and CK-1α using immunoblotting. […] When we increased the treatment time of LLC0424 in SEM cells, we observed mild decrease of GSPT1 from 12 h (SI, Figure S3F).
After treatment, the cultured cells were collected and rinsed with phosphate-buffered saline (PBS) in room temperature. The cells were treated with RIPA buffers (ThermoFisher Scientific) supplemented with Halt Protease and Phosphatase Inhibitor Cocktail (ThermoFisher Scientific). After sonication and centrifugation, the total amount of protein in the cell lysates was measured by Pierce Bovine Serum Albumin Standard Pre-Diluted Set (ThermoFisher Scientific). After mixed with LDS-sample buffer (Invitrogen) supplemented with Sample Reducing Agent (Invitrogen) and heated in 70 °C for 10 min, equal amount of protein was loaded into NuPAGE 4–12%, Bis-Tris Protein Gel (ThermoFisher Scientific) or NuPAGE 3–8%, Tris-Acetate Protein Gel (ThermoFisher Scientific), and blotted with primary antibodies. […]

H3K36me2 = H3K36me2 level by immunoblotting; format: cell-based, human; settings: 2 μM
Method: (§1) NSD2 is the primary methyltransferase that transfers dimethyl to H3K36 in ALL with NSD2 gain-of-function mutation. Therefore, the effects of LLC0424 on H3K36me2 was evaluated in SEM and RPMI-8402 cells. […] Meanwhile, LLC0424 treatment also led to downregulation of H3K36Me2 in RPMI-8402 cells within 24 h (Figure 6B). […] We also conducted a colony formation assay to evaluate the effect of LLC0424 on the stem cell-like property of the leukemia cells. […] As LLC0424 leads to strong degradation of both NSD2-L and NSD2-S, the phenotypic changes upon LLC0424 treatment result from complete inactivation of NSD2 activity, including adaptor-like function of NSD2-S and SET-domain dependent enzymatic function of NSD2-L. The specific contributions of NSD2 isoforms warrant future investigation. To characterize the genes affected by LLC0424 treatment, we performed global transcriptome analysis of SEM cells treated by DMSO, LLC0424, or LLC0424N. LLC0424 treatment led to significant changes in the transcriptome of SEM cells with over 326 differentially expressed genes. […]
After treatment, the cultured cells were collected and rinsed with phosphate-buffered saline (PBS) in room temperature. […] After sonication and centrifugation, the total amount of protein in the cell lysates was measured by Pierce Bovine Serum Albumin Standard Pre-Diluted Set (ThermoFisher Scientific). […]

SEM cells [2] = test: Proliferation assay (CellTiter-Glo, 9 days), SEM; format: cell-based, human; settings: 5 μM (Fig 6E) or 2 μM (Fig S4A)
Method: 2 × 10^3 cells per well were seeded in 5 replicates into 96-well plates and treated with 5 μM of the compound. Every 4 days, we added the compound with 5 μL of the 20* compound-containing mixture, reaching 1*concentration. Cell proliferation was evaluated by CellTiter-Glo assay (Promega).

SEM cells [3] = test: RNA-seq global transcriptome analysis; format: cell-based, human; settings: 14 days of treatment, versus DMSO
Method: as §1, with “LLC0424N.” for “LLC0424N. LLC0424 treatment led to significant changes in the transcriptome of SEM cells with over 326 differentially expressed genes.”
Total RNA was isolated from cells using the miRNeasy Mini Kit (Qiagen). […] Paired-end libraries were sequenced with the Illumina HiSeq 2500 (2 × 100 nucleotide read length) with sequence coverage to 15–20 M paired reads. […] Then we performed the analysis in R. First, EdgeR (edgeR_3.39.6) was used to perform read counts normalization and filtering (counts >10) and then Limma-Voom (limma_3.53.10) was used to analyze differential expression.

[4] = PK parameters in rats (LC/MS/MS); settings: rat, in vivo; for MRT last: read-out: MRT (0-t)
From the text: Table S4. PK parameters of LLC0424 in rats a Route/dose T1/2 Tmax Cmax AUC(0-t) CL MRT Vss F(%) […]
aDetermined using LC/MS/MS. T1/2: elimination half-life; Tmax: time for maximum concentration; Cmax: maximum concentration; AUC: the area under the curve; CL: clearance; MRT: mean residence time; Vss: volume of distribution; F: oral

- AUC(0-t) ([4]; iv, i.v. 2 mg/kg): 4320 ng·h/mL
- Cmax ([4]; iv, i.v. 2 mg/kg): 7320 ng/mL
- Tmax ([4]; iv, i.v. 2 mg/kg): 0.083 h
- clearance ([4]; iv, i.v. 2 mg/kg): 7.58 mL/min/kg
- half-life ([4]; iv, i.v. 2 mg/kg): 2.1 h
- MRT last ([4]; iv, i.v. 2 mg/kg): 1.28 h
- Vd ([4]; iv, i.v. 2 mg/kg, read-out: Vss): 0.763 L/kg
- AUC(0-t) ([4]; oral 10 mg/kg): 777 ng·h/mL
- Cmax ([4]; oral 10 mg/kg): 162 ng/mL
- Tmax ([4]; oral 10 mg/kg): 2 h
- bioavailability ([4]; oral 10 mg/kg): 3.67%
- half-life ([4]; oral 10 mg/kg): 1.52 h
- MRT last ([4]; oral 10 mg/kg): 3.18 h
Structure (SMILES): O=C1CCC(N2C(=O)c3ccc(N4CCC(NC(=O)c5ccc(NC(=O)c6ccc(CN(C(=O)c7ccc8c(c7)OCC(=O)N8)C7CC7)cc6)cc5)CC4)cc3C2=O)C(=O)N1 (stereo not drawn) [compound 10l, N-Cyclopropyl-N-(4-((4-((1-(2-(2,6-dioxopiperidin-3-yl)-1,3-dioxoisoindolin-5-yl)piperidin-4-yl)carbamoyl)phenyl)carbamoyl)benzyl)-3-oxo-3,4-dihydro-2H-benzo[b][1,4]oxazine-7-carboxamide]
- CRBN neo-substrates protein level [1]: remained unchanged
- H3K36Me2 level (H3K36me2; RPMI-8402 cells, within 24 h): downregulation
- H3K36Me2 level (H3K36me2; SEM cells, as long as 8 days): persistent downregulation
- cell growth on treatment for 9 days (SEM cells [2]): significantly inhibited
- differentially expressed genes (transcriptome) (SEM cells [3]): over 326
